According to ChEMBL document CHEMBL1159070, “Synthesis and disulfide bond connectivity-activity studies of a kalata B1-inspired cyclopeptide against dengue NS2B-NS3 protease” (Bioorg Med Chem, 2010):
Activity calls are given as the source filed them. The calls are words filed in the database; no cut-off is given here.

How the values were obtained:
dengue virus type 2 = test: (§1) Inhibition of Dengue virus 2 recombinant NS2B/3 protease expressed in Escherichia coli BL21(DE3) assessed as Dabcyl-KGRRSSKL-Edans substrate cleavage by fluorimetry
[1] = as §1; set-up: species or system dengue virus type 2

| Structure (SMILES) | Activity (dengue virus type 2) | IC50 [1] | Ki [1] |
| --- | --- | --- | --- |
| CC(C)C[C@@H]1NC(=O)CNC(=O)[C@H](CCCNC(=N)N)NC(=O)[C@H](CCCNC(=N)N)NC(=O)[C@H]([C@@H](C)O)NC(=O)[C@H](CS)NC(=O)[C@H](C(C)C)NC(=O)[C@@H]2CCCN2C(=O)[C@H](Cc2c[nH]c3ccccc23)NC(=O)[C@H](CO)NC(=O)[C@H](CCCNC(=N)N)NC(=O)[C@H](CCCNC(=N)N)NC(=O)[C@H](CS)NC(=O)CNC(=O)[C@H]2CCCN2C(=O)[C@H]([C@@H](C)O)NC(=O)[C@@H](N)CC(=O)NC(=O)[C@H](CS)NC(=O)CNC(=O)[C@H](CCCNC(=N)N)NC(=O)[C@H](CCCNC(=N)N)NC(=O)[C@H](CO)NC(=O)[C@H](CCC(=O)O)NC(=O)[C@H](CCC(=O)O)NC(=O)[C@H](CO)NC(=O)CNC(=O)[C@H](CS)NC(=O)[C@H](C(C)C)NC(=O)[C@@H]2CCCN2C1=O | Active |  |  |
| CC(C)C[C@@H]1NC(=O)CNC(=O)[C@H](CC(N)=O)NC(=O)[C@H](CCCNC(=N)N)NC(=O)[C@H]([C@@H](C)O)NC(=O)[C@H](CS)NC(=O)[C@H](C(C)C)NC(=O)[C@@H]2CCCN2C(=O)[C@H](CCC(=O)O)NC(=O)[C@H](CO)NC(=O)[C@H](CS)NC(=O)[C@H]([C@@H](C)O)NC(=O)[C@H](CS)NC(=O)CNC(=O)[C@@H]2CCCN2C(=O)[C@H]([C@@H](C)O)NC(=O)[C@H](CC(N)=O)NC(=O)[C@H](CS)NC(=O)[C@H]([C@@H](C)O)NC(=O)CNC(=O)CNC(=O)[C@H](C(C)C)NC(=O)[C@H](CS)NC(=O)[C@H]([C@@H](C)O)NC(=O)[C@H](CCC(=O)O)NC(=O)CNC(=O)[C@H](CS)NC(=O)[C@H](C(C)C)NC(=O)[C@@H]2CCCN2C1=O | inactive |  |  |
| CC(C)C[C@H](NC(=O)CN)C(=O)N1CCC[C@H]1C(=O)N[C@H](C(=O)N[C@@H](CS)C(=O)NCC(=O)N[C@@H](CCC(=O)O)C(=O)N[C@H](C(=O)N[C@@H](CS)C(=O)N[C@H](C(=O)NCC(=O)NCC(=O)N[C@H](C(=O)N[C@@H](CS)C(=O)N[C@@H](CC(N)=O)C(=O)N[C@H](C(=O)N1CCC[C@H]1C(=O)NCC(=O)N[C@@H](CS)C(=O)N[C@H](C(=O)N[C@@H](CS)C(=O)N[C@@H](CO)C(=O)N[C@@H](CCC(=O)O)C(=O)N1CCC[C@H]1C(=O)N[C@H](C(=O)N[C@@H](CS)C(=O)N[C@H](C(=O)N[C@@H](CCCNC(=N)N)C(=O)N[C@@H](CC(N)=O)C(=O)O)[C@@H](C)O)C(C)C)[C@@H](C)O)[C@@H](C)O)[C@@H](C)O)C(C)C)[C@@H](C)O)C(C)C | inactive |  |  |

The next lines start with results.

| Activity (dengue virus type 2) | IC50 [1] | Structure (SMILES) | Ki [1] |
| --- | --- | --- | --- |
|  | 9.3 µM | CC(C)C[C@@H]1NC(=O)CNC(=O)[C@H](CCCNC(=N)N)NC(=O)[C@H](CCCNC(=N)N)NC(=O)[C@H]([C@@H](C)O)NC(=O)[C@@H]2CSSC[C@H](NC(=O)[C@H](C(C)C)NC(=O)[C@@H]3CCCN3C1=O)C(=O)NCC(=O)N[C@@H](CO)C(=O)N[C@@H](CCC(=O)O)C(=O)N[C@@H](CCC(=O)O)C(=O)N[C@@H](CO)C(=O)N[C@@H](CCCNC(=N)N)C(=O)N[C@@H](CCCNC(=N)N)C(=O)NCC(=O)N[C@H]1CSSC[C@H](NC(=O)CNC(=O)[C@@H]3CCCN3C(=O)[C@H]([C@@H](C)O)NC(=O)[C@@H](N)CC(=O)NC1=O)C(=O)N[C@@H](CCCNC(=N)N)C(=O)N[C@@H](CCCNC(=N)N)C(=O)N[C@@H](CO)C(=O)N[C@@H](Cc1c[nH]c3ccccc13)C(=O)N1CCC[C@H]1C(=O)N[C@@H](C(C)C)C(=O)N2 | 3.03 µM |
|  | 4.3 µM | CC(C)C[C@@H]1NC(=O)CNC(=O)[C@H](CCCNC(=N)N)NC(=O)[C@H](CCCNC(=N)N)NC(=O)[C@H]([C@@H](C)O)NC(=O)[C@@H]2CSSC[C@H](NC(=O)CNC(=O)[C@@H]3CCCN3C(=O)[C@H]([C@@H](C)O)NC(=O)[C@@H](N)CC(=O)NC(=O)[C@@H]3CSSC[C@H](NC(=O)[C@H](C(C)C)NC(=O)[C@@H]4CCCN4C1=O)C(=O)NCC(=O)N[C@@H](CO)C(=O)N[C@@H](CCC(=O)O)C(=O)N[C@@H](CCC(=O)O)C(=O)N[C@@H](CO)C(=O)N[C@@H](CCCNC(=N)N)C(=O)N[C@@H](CCCNC(=N)N)C(=O)NCC(=O)N3)C(=O)N[C@@H](CCCNC(=N)N)C(=O)N[C@@H](CCCNC(=N)N)C(=O)N[C@@H](CO)C(=O)N[C@@H](Cc1c[nH]c3ccccc13)C(=O)N1CCC[C@H]1C(=O)N[C@@H](C(C)C)C(=O)N2 | 1.39 µM |
